Data on 14 compounds can be found in patent US20240043470A1, “MACROCYCLIC COMPOUNDS AS PROTEASOME INHIBITORS” (CORNELL UNIVERSITY, priority 2017, published 2024).

Molecules are shown by their SMILES.

For the first assay, the target named is β5i of hu i-20S (Homo sapiens (Human), UniProt P20618+P28062). Put plainly: IC50 determination against β5i of human immunoproteasome (Ac-ANW-AMC hydrolysis).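 Further: enzyme activity taken as the initial reaction velocity per well, with SDS added to activate the proteasome.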 Format: biochemical. To be noted: β5i, 0.4 nM i-20S, 15 μM Ac-ANW-AMC.
Consider `O=C1N[C@H](CO)CCCCOc2cccc(c2)C[C@H](N2CCCC2=O)C(=O)N[C@H]1CCc1ccccc1` [Compound 3-06, (7S,10S,13S)-7-(Hydroxymethyl)-13-(2-oxopyrrolidin-1-yl)-10-phenethyl-2-oxa-8,11-diaza-1(1,3)-benzenacyclotetradecaphane-9,12-dione], for which it took 68 µM to reach half-maximal inhibition (IC50).

The next assay deals with β5c of hu c-20S (Homo sapiens (Human), UniProt P20618+P28074). Description: IC50 determination against β5c of human constitutive proteasome (suc-LLVY-AMC hydrolysis).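 Further: IC50 obtained by fitting initial reaction velocities to a dose-dependent inhibition model, with SDS present as proteasome activator.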 Type of assay: biochemical. Conditions: 0.2 nM c-20S, 25 μM suc-LLVY-AMC.
Compound `Cn1cnc(C(=O)N[C@H]2Cc3cccc(c3)Oc3cccc(c3)C[C@@H](C(=O)NCc3ccccc3)NC(=O)[C@H](CCc3ccccc3)NC2=O)c1` [Compound 1-13] had an IC50 of 3.52 µM. This counts as single-digit micromolar.

For the compound `O=C(CO)N[C@H]1Cc2cccc(c2)Oc2cccc(c2)C[C@@H](C(=O)NC2CCCC2)NC(=O)[C@H](CCc2ccccc2)NC1=O` [Compound 1-20], the concentration for half-maximal inhibition (IC50) amounted to 3.25 µM. Take `Cn1cc(CNC(=O)[C@@H]2Cc3cccc(c3)Oc3cccc(c3)C[C@H](N3CCCCC3)C(=O)N[C@@H](CCc3ccccc3)C(=O)N2)cn1` [Compound 1-01, (5S,8S,11S)—N-((1-Methyl-1H-pyrazol-4-yl)methyl)-7,10-dioxo-8-phenethyl-11-(piperidin-1-yl)-2-oxa-6,9-diaza-1,3(1,3)-dibenzenacyclododecaphane-5-carboxamide]: it took 0.402 µM to reach half-maximal inhibition (IC50). For `CCN(CC)[C@H]1Cc2cccc(c2)Oc2cccc(c2)C[C@@H](C(=O)NC2CCCC2)NC(=O)[C@H](CCc2ccccc2)NC1=O` [Compound 1-22], the half-inhibitory concentration (IC50) came out at 41.6 µM. In turn, `CCC(=O)N[C@H]1Cc2cccc(c2)Oc2cccc(c2)C[C@@H](C(=O)NCc2ccccc2)NC(=O)[C@H](CCc2ccccc2)NC1=O` [Compound 1-14] had an IC50 of 4.01 µM.

Turning to `O=C1CCc2cccc(c2)OCCCC[C@@H](C(=O)NC2CCCC2)NC(=O)[C@H](CCN2CCOCC2)N1` [Compound 3-25, (6S,9S)—N-Cyclopentyl-9-(2-morpholinoethyl)-8,11-dioxo-2-oxa-7,10-diaza-1(1,3)-benzenacyclotridecaphane-6-carboxamide], half-maximal inhibition (IC50) was put at 24.1 µM.

In turn, `CC(C)NC(=O)[C@@H]1Cc2cccc(c2)Oc2cccc(c2)C[C@H](NC(=O)c2ccccc2)C(=O)N[C@@H](CCc2ccccc2)C(=O)N1` [Compound 1-26] displayed an IC50 of 6.93 µM. Compared with the last compound, the IC50 is about 3.5-fold lower. `Cc1nn(C)cc1CNC(=O)[C@@H]1Cc2cccc(c2)Oc2cccc(c2)C[C@H](NS(C)(=O)=O)C(=O)N[C@@H](CCc2ccccc2)C(=O)N1` [Compound 1-38] had an IC50 of 4.29 µM. This IC50 is about 1.6-fold lower than that of the compound before. `O=C(NCC1CC1)[C@@H]1CCCCOc2cccc(c2)C[C@H](N2CCCC2=O)C(=O)N[C@@H](CCN2CCOCC2)C(=O)N1` [Compound 3-17, (7S,10S,13S)—N-(Cyclopropylmethyl)-10-(2-morpholinoethyl)-9,12-dioxo-13-(2-oxopyrrolidin-1-yl)-2-oxa-8,11-diaza-1(1,3)-benzenacyclotetradecaphane-7-carboxamide] displayed an IC50 of 17.9 µM.

For `O=C(NC1CCCC1)[C@@H]1Cc2cccc(c2)Oc2cccc(c2)C[C@H](N2CCCC2)C(=O)N[C@@H](CCc2ccccc2)C(=O)N1` [Compound 1-18], the IC50 turned out to be 0.572 µM. For the compound `CCN[C@H]1Cc2cccc(c2)Oc2cccc(c2)C[C@@H](C(=O)NC2CCCC2)NC(=O)[C@H](CCc2ccccc2)NC1=O` [Compound 1-24, (5S,8S,11S)—N-Cyclopentyl-11-(methylamino)-7,10-dioxo-8-phenethyl-2-oxa-6,9-diaza-1,3(1,3)-dibenzenacyclododecaphane-5-carboxamide], inhibition was half-maximal at 100 µM (IC50). Against the preceding compound, the IC50 is about 170-fold higher. Still for that read-out and setting: then `O=C(NC[C@H]1CCCO1)[C@@H]1CCCCOc2cccc(c2)C[C@H](N2CCCC2=O)C(=O)N[C@@H](CCc2ccc(F)cc2)C(=O)N1` [Compound 3-30], with 85.3 µM. The compound `O=C(N[C@H]1Cc2cccc(c2)Oc2cccc(c2)C[C@@H](C(=O)NCc2ccccc2)NC(=O)[C@H](CCc2ccccc2)NC1=O)c1ccccn1` [Compound 1-12] came in with an IC50 of 3.2 µM. Against the preceding compound, the IC50 is about 27-fold lower.
